Assay results reported in ChEMBL document CHEMBL3352299, “Antiproliferative 4-(1,2,4-oxadiazol-5-yl)piperidine-1-carboxamides, a new tubulin inhibitor chemotype” (Bioorg Med Chem Lett, 2014).

What was measured:
[1] = test system: K562; assay: Induction of mitotic arrest in human K562 cells assessed as mitotic indices at 5 uM by light microscopy; type: functional
[2] = target: Tubulin; assay: Displacement of [3H]-colchicine from tubulin (unknown origin) after 10 mins by turbidimetrically; type: protein-complex assay, Homo sapiens
[3] = test system: K562; assay: Induction of mitotic arrest in human K562 cells assessed as growth inhibition by light microscopy; type: functional, cell-based
[4] = test system: DU-145; assay: (§1) Antiproliferative activity against human DU145 cells after 3 days by fluorescence assay; type: functional; settings: DU-145, 72 h
[5] = test system: MDA-MB-468; assay: Antiproliferative activity against human MDA-MB-468 cells after 3 days by fluorescence assay; type: functional; settings: MDA-MB-468, 72 h
[6] = test system: SNB-19; assay: Antiproliferative activity against human SNB19 cells after 3 days by fluorescence assay; type: functional; settings: SNB-19, 72 h
[7] = test system: SK-MEL-28; assay: Antiproliferative activity against human SK-MEL-28 cells after 3 days by fluorescence assay; type: functional; settings: SK-MEL-28, 72 h
[8] = test system: CAKI-1; assay: Antiproliferative activity against human CAKI-1 cells after 3 days by fluorescence assay; type: functional; settings: CAKI-1, 72 h
[9] = Antiproliferative activity against human OVCAR4 cells after 3 days by fluorescence assay; type: functional; settings: OVCAR-4, 72 h
[10] = Antiproliferative activity against human NCI-ADR-RES cells after 3 days by fluorescence assay; type: functional; settings: 72 h
[11] = test system: MCF7; assay: Antiproliferative activity against human MCF7 cells after 3 days by fluorescence assay; type: functional; settings: MCF7, 72 h
[12] = Antiproliferative activity against human UACC62 cells after 3 days by fluorescence assay; type: functional; settings: UACC-62, 72 h
[13] = Antiproliferative activity against human EKVX cells after 3 days by fluorescence assay; type: functional; settings: 72 h
[14] = test system: K562; assay: Antiproliferative activity against human K562 cells after 3 days by fluorescence assay; type: functional; settings: K562, 72 h
[15] = test system: NCI-H460; assay: Antiproliferative activity against human NCI-H460 cells after 3 days by fluorescence assay; type: functional; settings: NCI-H460, 72 h
[16] = Antiproliferative activity against human BT549 cells after 3 days by fluorescence assay; type: functional; settings: BT-549, 72 h
[17] = test system: HOP-62; assay: Antiproliferative activity against human HOP62 cells after 3 days by fluorescence assay; type: functional; settings: HOP-62, 72 h
[18] = test system: M14; assay: Antiproliferative activity against human M14 cells after 3 days by fluorescence assay; type: functional; settings: M14, 72 h
[19] = test system: CCRF-CEM; assay: Antiproliferative activity against human CCRF-CEM cells after 3 days by fluorescence assay; type: functional; settings: 72 h
[20] = test system: SK-MEL-5; assay: Antiproliferative activity against human SK-MEL-5 cells after 3 days by fluorescence assay; type: functional; settings: SK-MEL-5, 72 h
[21] = Antiproliferative activity against human OVCAR8 cells after 3 days by fluorescence assay; type: functional; settings: OVCAR-8, 72 h
[22] = Antiproliferative activity against human HOP92 cells after 3 days by fluorescence assay; type: functional; settings: HOP-92, 72 h
[23] = test system: Malme-3M; assay: Antiproliferative activity against human MALME-3M cells after 3 days by fluorescence assay; type: functional; settings: 72 h
[24] = test system: A549; assay: Antiproliferative activity against human A549 cells after 3 days by fluorescence assay; type: functional; settings: A549, 72 h
[25] = test system: HL-60(TB); assay: Antiproliferative activity against human HL-60(TB) cells after 3 days by fluorescence assay; type: functional; settings: HL-60, 72 h
[26] = Antiproliferative activity against human RPMI8226 cells after 3 days by fluorescence assay; type: functional; settings: RPMI-8226, 72 h
[27] = test system: ACHN; assay: Antiproliferative activity against human ACHN cells after 3 days by fluorescence assay; type: functional; settings: 72 h
[28] = Antiproliferative activity against human HCT116 cells after 3 days by fluorescence assay; type: functional; settings: HCT-116, 72 h
[29] = Antiproliferative activity against human HCC2998 cells after 3 days by fluorescence assay; type: functional; settings: HCC 2998, 72 h
[30] = test system: SW-620; assay: Antiproliferative activity against human SW620 cells after 3 days by fluorescence assay; type: functional; settings: SW-620, 72 h
[31] = Antiproliferative activity against human UO31 cells after 3 days by fluorescence assay; type: functional; settings: UO-31, 72 h
[32] = Antiproliferative activity against human SF539 cells after 3 days by fluorescence assay; type: functional; settings: SF-539, 72 h
[33] = test system: T47D; assay: Antiproliferative activity against human T47D cells after 3 days by fluorescence assay; type: functional; settings: 72 h
[34] = Antiproliferative activity against human SKOV3 cells after 3 days by fluorescence assay; type: functional; settings: SK-OV-3, 72 h
[35] = Antiproliferative activity against human COLO205 cells after 3 days by fluorescence assay; type: functional; settings: COLO 205, 72 h
[36] = Antiproliferative activity against human Hs 578T cells after 3 days by fluorescence assay; type: functional; settings: 72 h
[37] = test system: DU-145; assay: as §1; type: functional; settings: DU-145, 72 h; remark: listed apart in the source
[38] = test system: SK-MEL-2; assay: Antiproliferative activity against human SK-MEL-2 cells after 3 days by fluorescence assay; type: functional; settings: SK-MEL-2, 72 h
[39] = Antiproliferative activity against human LOXIMVI cells after 3 days by fluorescence assay; type: functional; settings: LOX IMVI, 72 h
[40] = test system: SNB-75; assay: Antiproliferative activity against human SNB75 cells after 3 days by fluorescence assay; type: functional; settings: SNB-75, 72 h
[41] = test system: MDA-MB-231; assay: Antiproliferative activity against human MDA-MB-231 cells after 3 days by fluorescence assay; type: functional; settings: MDA-MB-231, 72 h
[42] = test system: IGROV-1; assay: Antiproliferative activity against human IGROV1 cells after 3 days by fluorescence assay; type: functional; settings: IGROV-1, 72 h
[43] = test system: TK-10; assay: Antiproliferative activity against human TK10 cells after 3 days by fluorescence assay; type: functional; settings: TK-10, 72 h
[44] = test system: SN12C; assay: Antiproliferative activity against human SN12C cells after 3 days by fluorescence assay; type: functional; settings: 72 h
[45] = test system: NCI-H522; assay: Antiproliferative activity against human NCI-H522 cells after 3 days by fluorescence assay; type: functional; settings: NCI-H522, 72 h
[46] = test system: A498; assay: Antiproliferative activity against human A498 cells after 3 days by fluorescence assay; type: functional; settings: A498, 72 h
[47] = test system: U-251; assay: Antiproliferative activity against human U251 cells after 3 days by fluorescence assay; type: functional; settings: U-251, 72 h
[48] = Antiproliferative activity against human UACC257 cells after 3 days by fluorescence assay; type: functional; settings: UACC-257, 72 h
[49] = test system: NCI-H226; assay: Antiproliferative activity against human NCI-H226 cells after 3 days by fluorescence assay; type: functional; settings: NCI-H226, 72 h
[50] = test system: 786-0; assay: Antiproliferative activity against human 786-0 cells after 3 days by fluorescence assay; type: functional; settings: 786-0, 72 h
[51] = Antiproliferative activity against human SF295 cells after 3 days by fluorescence assay; type: functional; settings: SF-295, 72 h
[52] = test system: KM12; assay: Antiproliferative activity against human KM12 cells after 3 days by fluorescence assay; type: functional; settings: KM12, 72 h
[53] = test system: SR; assay: Antiproliferative activity against human SR cells after 3 days by fluorescence assay; type: functional; settings: 72 h
[54] = Antiproliferative activity against human MOLT4 cells after 3 days by fluorescence assay; type: functional; settings: MOLT-4, 72 h
[55] = test system: SF-268; assay: Antiproliferative activity against human SF268 cells after 3 days by fluorescence assay; type: functional; settings: SF-268, 72 h
[56] = Antiproliferative activity against human OVCAR3 cells after 3 days by fluorescence assay; type: functional; settings: OVCAR-3, 72 h
[57] = Antiproliferative activity against human OVCAR5 cells after 3 days by fluorescence assay; type: functional; settings: OVCAR-5, 72 h
[58] = test system: NCI-H322M; assay: Antiproliferative activity against human NCI-H322M cells after 3 days by fluorescence assay; type: functional; settings: 72 h
[59] = test system: MDA-MB-435; assay: Antiproliferative activity against human MDA-MB-435 cells after 3 days by fluorescence assay; type: functional; settings: MDA-MB-435, 72 h
[60] = Antiproliferative activity against human RXF393 cells after 3 days by fluorescence assay; type: functional; settings: RXF 393, 72 h
[61] = Antiproliferative activity against human HCT15 cells after 3 days by fluorescence assay; type: functional; settings: HCT-15, 72 h
[62] = Antiproliferative activity against human PC3 cells after 3 days by fluorescence assay; type: functional; settings: PC-3, 72 h
[63] = test system: NCI-H23; assay: Antiproliferative activity against human NCI-H23 cells after 3 days by fluorescence assay; type: functional; settings: NCI-H23, 72 h
[64] = test system: HT-29; assay: Antiproliferative activity against human HT-29 cells after 3 days by fluorescence assay; type: functional; settings: HT-29, 72 h
[65] = test system: DU-145; assay: Antiproliferative activity against human DU145 cells at 50 uM after 3 days by fluorescence assay; type: functional; settings: DU-145, 72 h, read-out: GI

Structure (SMILES): Cc1ccc(-c2noc(C3CCN(C(=O)NCc4ccccc4)CC3)n2)cc1
- Activity [1]: 83%
- IC50 [2]: 1100 nM
- IC50 [3]: 550 nM
- GI50 [4]: 1600 nM

Structure (SMILES): O=C(NCc1ccccc1)N1CCC(c2nc(-c3ccccc3Cl)no2)CC1
- IC50 [2]: 2600 nM
- GI50 [4]: 9300 nM

Structure (SMILES): COc1cccc(NC(=O)N2CCC(c3nc(-c4ccc(Cl)cc4)no3)CC2)c1
- IC50 [2]: 5300 nM
- GI50 [4]: 9500 nM

Structure (SMILES): O=C(NCc1ccco1)N1CCC(c2nc(-c3ccc(Cl)cc3)no2)CC1
- IC50 [2]: 2000 nM
- GI50 [4]: 2700 nM

Structure (SMILES): O=C(NCc1ccccc1)N1CCC(c2nc(-c3ccccc3)no2)CC1
- Activity [1]: 75%
- IC50 [2]: 1800 nM
- IC50 [3]: 1500 nM
- GI50 [4]: 1900 nM

Structure (SMILES): COc1cccc(-c2noc(Nc3ccc(C)cc3)n2)c1OC
- GI50 [5]: 1100 nM
- GI50 [6]: 3800 nM
- GI50 [7]: 2340 nM
- GI50 [8]: 3160 nM
- GI50 [9]: 6310 nM
- GI50 [10]: 562 nM
- GI50 [11]: 1580 nM
- GI50 [12]: 2880 nM
- GI50 [13]: 5500 nM
- GI50 [14]: 245 nM
- GI50 [15]: 2090 nM
- GI50 [16]: 6170 nM
- GI50 [17]: 2290 nM
- GI50 [18]: 1350 nM
- GI50 [19]: 2340 nM
- GI50 [20]: 3090 nM
- GI50 [21]: 3980 nM
- GI50 [22]: 3890 nM
- GI50 [23]: 1740 nM
- GI50 [24]: 3160 nM
- GI50 [25]: 676 nM
- GI50 [26]: 2950 nM
- GI50 [27]: 7080 nM
- GI50 [28]: 1150 nM
- GI50 [29]: 3630 nM
- GI50 [30]: 603 nM
- GI50 [31]: 5370 nM
- GI50 [32]: 1200 nM
- GI50 [33]: 3630 nM
- GI50 [34]: 2880 nM
- GI50 [35]: 2570 nM
- GI50 [36]: 3470 nM
- GI50 [37]: 3160 nM
- GI50 [38]: 2290 nM
- GI50 [39]: 3090 nM
- GI50 [40]: 1910 nM
- GI50 [41]: 10700 nM
- GI50 [42]: 4790 nM
- GI50 [43]: 4470 nM
- GI50 [44]: 6030 nM
- GI50 [45]: 891 nM
- GI50 [46]: 2400 nM
- GI50 [47]: 3720 nM
- GI50 [48]: 2820 nM
- GI50 [49]: 7760 nM
- GI50 [50]: 4790 nM
- GI50 [51]: 1100 nM
- GI50 [52]: 1000 nM
- GI50 [53]: 234 nM
- GI50 [54]: 4680 nM
- GI50 [55]: 4790 nM
- GI50 [56]: 1150 nM
- GI50 [57]: 11200 nM
- GI50 [58]: 5130 nM
- GI50 [59]: 219 nM
- GI50 [60]: 1320 nM
- GI50 [61]: 1780 nM
- GI50 [62]: 3800 nM
- GI50 [63]: 1740 nM
- GI50 [64]: 525 nM

Structure (SMILES): O=C(NCc1ccccc1)N1CCC(c2nc(-c3ccc(F)cc3)no2)CC1
- Activity [1]: 72%
- IC50 [2]: 1600 nM
- IC50 [3]: 1200 nM
- GI50 [4]: 2800 nM

Structure (SMILES): O=C(NCc1ccsc1)N1CCCC1c1nc(Cc2ccccc2)no1 (configuration not stated)
- inhibition of growth at 50 µM [65]: < 20%

Structure (SMILES): Cc1ccc(-c2noc(C3CCN(C(=O)NCc4ccco4)CC3)n2)cc1
- IC50 [2]: 2300 nM
- GI50 [4]: 2200 nM

Structure (SMILES): CCCCNC(=O)N1CCC(c2nc(-c3ccc(F)cc3)no2)CC1
- inhibition of growth at 50 µM [65]: < 20%
